Reference: the METLIN SMRT retention time set (Domingo-Almenara et al. 2019)

Test: gradient 5% acetonitrile 3 min, to 50% in 2 min, to 85% in 15 min, held 3 min, 100 µL/min
Conditions: column: Zorbax Extend-C18 2.1 x 50 mm; eluents: water / acetonitrile, 0.1% formic acid
How it was run: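 Values are retention times taken from adduct peaks that software picked and an analyst inspected. The pure standards were run as mixtures of ~100 molecules on HPLC linked to a quadrupole time-of-flight mass spectrometer, in positive and negative ionization mode. A Zorbax Extend-C18 column (2.1 × 50 mm, 1.8 μm) was used at 100 μL/min with water and acetonitrile, each including 0.1% formic acid.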
For `Cc1nn(-c2ccccc2)c2c1N(C(=O)CCC(=O)NCCc1c[nH]c3ccccc13)CCS2`, the RP-LC retention time was 850 s.
With `CC(C)Cn1cc(CCNS(=O)(=O)c2cccc(Br)c2)c2cccnc21` the RP-LC retention time was 990 s.
`O=C(C1=CN(c2ccc(F)c(Cl)c2)c2ccccc2S1(=O)=O)N1CCCC1` gave an RP-LC retention time of 817 s.
In the case of `COc1ccc(-c2nc3sc(C(N)=O)c(C)n3c2NC(C)(C)C)cc1`, the RP-LC retention time is reported as 705 s.
Molecule `Fc1cc(F)cc(Cc2nc3nccc(-c4ccccc4)n3n2)c1` has an RP-LC retention time of 926 s.
Molecule `CCc1ccc(S(=O)(=O)N2CCC3(CC2)NCCN=C3NCc2ccccc2C)cc1` has an RP-LC retention time of 791 s.
`CSc1ccc(NC(=O)C2CCN(c3cnc4nc(C)c(C)nc4c3)CC2)cc1` showed an RP-LC retention time of 767 s.
`CCN(CCNC(=O)CCc1cc2cc(OC)ccc2[nH]c1=O)Cc1ccccc1` gave an RP-LC retention time of 626 s.
`COc1cccc(Cn2c(C)c(CNCc3ccc(C)o3)c(C(=O)O)c2C)c1` showed an RP-LC retention time of 715 s.
Work on `CCC(CC)C(=O)N1CCC(N2CCN(Cc3ccc(C)cc3)C(=O)C2=O)CC1` yielded an RP-LC retention time of 756 s.
`Cc1noc(CNS(=O)(=O)c2ccc(OC(F)(F)F)cc2)n1` gave an RP-LC retention time of 818 s.
Work on `CC1(C(=O)NCc2ccccc2)CN(S(=O)(=O)c2ccccc2)CC(=O)N1C1CCCCCC1` (stereo not given) yielded an RP-LC retention time of 1060 s.
Molecule `Clc1ccc(Nc2c(-c3cccc(Cl)c3)nc3ccc(Cl)cn23)cc1` has an RP-LC retention time of 1140 s.
For `O=C([C@@H]1C[C@H](F)CN1C(=O)Nc1ccc(C(F)(F)F)cc1)N1CCc2ccccc2C1`, the RP-LC retention time was 857 s.
`CCCn1cc(CCNS(=O)(=O)c2ccc(F)c(C)c2)c2cccnc21` showed an RP-LC retention time of 893 s.
Work on `CC(C)NC(=O)C1CCN(c2nc3ccc(-c4cncnc4)nc3s2)CC1` yielded an RP-LC retention time of 703 s.
In the case of `Cc1[nH]c(C(=O)N2CCN(c3ccccc3F)CC2)c(C)c1S(=O)(=O)N1CCOCC1`, the RP-LC retention time is reported as 793 s.
`COc1ccccc1N1CCN(c2cc(SCC(=O)Nc3cc(F)ccc3F)ncn2)CC1` gave an RP-LC retention time of 1130 s.
For `CCCN1C(=O)c2cc(S(=O)(=O)N3CCOCC3)ccc2Oc2cccnc21`, the RP-LC retention time was 926 s.
In the case of `CCn1ccc(C(=O)N2CCC(c3noc(-c4ccncc4)n3)C2)n1` (stereo not given), the RP-LC retention time is reported as 665 s.
In the case of `O=C(NCCc1ccccn1)C1CCc2nc(N3CCOCC3)ncc2C1` (stereo not given), the RP-LC retention time is reported as 645 s.
`Cc1c(Cl)cccc1NS(=O)(=O)c1cc(-c2nc(C(C)(C)C)cs2)cs1` gave an RP-LC retention time of 1340 s.
In the case of `O=C(C1CCN(c2cnc3nccnc3c2)CC1)N1CCN(c2ccc(F)cc2)CC1`, the RP-LC retention time is reported as 723 s.
`CCN1CCCn2cc(S(=O)(=O)Nc3cc(Cl)ccc3OC)cc2C1=O` showed an RP-LC retention time of 794 s.
With `COc1cc(OC)c(NC(=O)Cn2nc3cc(C)nc(-c4ccc(F)cc4)n3c2=O)cc1Cl` the RP-LC retention time was 899 s.
In the case of `CCCc1cnc2c(c1SCC(=O)N(CC)CC)c(=O)n(C)c(=O)n2C`, the RP-LC retention time is reported as 892 s.
For `CCCCNC(=O)C1CCN(c2nc(NC(C)=O)c(C(=O)N3CCCC3)s2)CC1`, the RP-LC retention time was 683 s.
`CCc1ccccc1NC(=O)N1CCC2(CC1)NC(=O)c1ccccc1N2CC` gave an RP-LC retention time of 797 s.
Work on `CN1C(=O)c2cc(S(=O)(=O)Nc3ccc(F)cc3Cl)ccc2Oc2cccnc21` yielded an RP-LC retention time of 943 s.
`COc1ccc(CNC(=O)c2c(C)sc3ccn(C)c(=O)c23)c(OC)c1` gave an RP-LC retention time of 743 s.
In the case of `Cc1cc(NC(=O)C(=O)NCCCn2ccnc2)ccc1Br`, the RP-LC retention time is reported as 659 s.
`CCCn1cc(S(=O)(=O)Nc2cccc(OC)c2)c2cccnc21` showed an RP-LC retention time of 840 s.
Molecule `Cc1nn(C)cc1CN(C)C(=O)c1cc2c(=O)n(CC(C)C)c3ccccc3n2n1` has an RP-LC retention time of 808 s.
For `CC(C)c1nnc(-c2coc(S(=O)(=O)N3CCN(C4CCCCC4)CC3)c2)o1`, the RP-LC retention time was 644 s.
With `CCC(C)N(CC(=O)N(Cc1ccco1)CC1CCCO1)C(=O)c1ccc(F)cc1` (stereo not given) the RP-LC retention time was 864 s.
Work on `Cn1cc(CCN2CCN(S(=O)(=O)c3cccc(Cl)c3)CC2)c2cccnc21` yielded an RP-LC retention time of 650 s.
`Cn1nc(-c2ccncc2)nc1C1CN(S(=O)(=O)c2cccc(C(F)(F)F)c2)C1` gave an RP-LC retention time of 715 s.
In the case of `CCOC(=O)c1cccc(Nc2ncccc2S(=O)(=O)NC)c1`, the RP-LC retention time is reported as 622 s.
In the case of `CCC(=O)N1CCc2cc(C(=O)NC3CC3)ccc21`, the RP-LC retention time is reported as 650 s.
In the case of `O=c1[nH]c2ccc(NCc3ccc(-c4ccccc4Cl)o3)cc2[nH]1`, the RP-LC retention time is reported as 717 s.
Work on `Cc1noc(-c2cc(=O)n(CC(=O)NCc3ccc(Cl)cc3)c3ccccc23)n1` yielded an RP-LC retention time of 888 s.
`COc1ccccc1C(=O)N1CCC(COc2ccc(C(=O)NC(C)C)cc2)CC1` showed an RP-LC retention time of 817 s.
Molecule `NC(=O)Cc1ccc2c(c1)[nH]c1ccccc12` has an RP-LC retention time of 756 s.
With `O=c1c2cnc3nc(-c4ccccc4Cl)nn3c2ccn1CCc1c[nH]c2ccccc12` the RP-LC retention time was 950 s.
In the case of `O=C(Cn1nc2c(cc1=O)CCCCC2)NCCc1c[nH]c2ccc(F)cc12`, the RP-LC retention time is reported as 794 s.
`Cc1cccc(NC(=O)CN2C(=O)CCCc3cc(S(=O)(=O)N4CCCC4)ccc32)c1C` showed an RP-LC retention time of 916 s.
`NC(=O)CNC(=O)c1cc2c(s1)N(CC1CC1)CCCC2` showed an RP-LC retention time of 692 s.
`COc1cc(OC)cc(-c2nnc(Cc3nc(-c4ccccc4)no3)o2)c1` showed an RP-LC retention time of 1020 s.
`Cn1nc(-c2ccccc2)cc1N` gave an RP-LC retention time of 599 s.
Molecule `CC1(C)COc2ccc(NC(=O)c3ccc(Br)o3)cc2NC1=O` has an RP-LC retention time of 824 s.
`Cc1nc(-c2ccc3c(c2)CCN3C(=O)c2cccc(C#N)c2)cs1` gave an RP-LC retention time of 906 s.
For `Cn1cc2c(n1)c(=O)n(Cc1ccc(Cl)cc1)c1nn(Cc3ccccc3)c(=O)n21`, the RP-LC retention time was 960 s.
`Cc1cc2n(n1)CCCN2C(=O)CCC(=O)NCc1ccc(N(C)C)cc1` showed an RP-LC retention time of 609 s.
`CC(=O)N1CCC2(CC1)C(=O)N(C)c1ccccc12` gave an RP-LC retention time of 665 s.
`CN1CCN(CC2(O)CCC3(CCN(C(=O)c4ccoc4)CC3)CC2)CC1` showed an RP-LC retention time of 551 s.
With `Cc1ccc(-c2nc3nc(C)cc(C)n3c2Nc2ccccc2)cc1` the RP-LC retention time was 726 s.
In the case of `Cc1ccc(C(C)NC(=O)C2CCN(c3ccc4nncn4n3)CC2)cc1` (stereo not given), the RP-LC retention time is reported as 736 s.
`COCc1c(C(=O)N2CCCC2Cc2noc(C3CCCC3)n2)noc1C` (stereo not given) gave an RP-LC retention time of 922 s.
With `COc1ccc(-n2c(=O)n(C)c(=O)c3cc(C(=O)NC4CCCCCC4)cnc32)cc1` the RP-LC retention time was 924 s.
`CCOC(=O)c1sc2nc(C)cc(C)c2c1N(C(C)=O)C(C)=O` gave an RP-LC retention time of 860 s.
With `O=C(COC(=O)c1cccc([N+](=O)[O-])c1)c1ccc(NC(=O)c2ccccc2)cc1` the RP-LC retention time was 921 s.
With `CCOC(=O)N1CCN(C(=O)CCc2cc3cc(OC)ccc3[nH]c2=O)CC1` the RP-LC retention time was 662 s.
`Cc1nc(N)nc(N)c1-c1ccc(Cl)c(Cl)c1` gave an RP-LC retention time of 642 s.
With `COc1ccc(OC)c(NC(=O)CN2CC=C(c3cnn(C)c3)CC2)c1` the RP-LC retention time was 597 s.
For `COc1cc(OC)c(NC(=O)N(C)CCc2noc(-c3ccccc3)n2)cc1Cl`, the RP-LC retention time was 946 s.
With `O=C(NCC(c1cccnc1)c1c[nH]c2ccccc12)Nc1ccc(Br)cc1` (stereo not given) the RP-LC retention time was 724 s.
With `CCc1nnc(-c2ccc3ccn(CC(=O)Nc4cccc(C(C)=O)c4)c3c2)o1` the RP-LC retention time was 788 s.
In the case of `N#CCN(c1ccc2c(c1)OCCO2)S(=O)(=O)c1ccc2nncn2c1`, the RP-LC retention time is reported as 690 s.
`COc1ccc(C(=O)Nc2nc(-c3ccc4c(c3)N(C)C(=O)CO4)c(C)s2)cc1OC` gave an RP-LC retention time of 906 s.
Work on `CCOC(=O)c1sc(NC(=O)c2cccs2)nc1C` yielded an RP-LC retention time of 892 s.
For `CCOC(=O)c1[nH]c(C)c(CCC(=O)N2CCCC(C(=O)NC3CCCCCC3)C2)c1C` (stereo not given), the RP-LC retention time was 868 s.
With `Cc1ccc2c(c1)N(C(=O)CSc1ccc(N3CCCC(C(=O)NC4CC4)C3)nn1)CCO2` (stereo not given) the RP-LC retention time was 687 s.
`Cn1nc(C(=O)N2CCCN(c3cc(-c4ccc(Cl)cc4)[nH]n3)CC2)c2ccccc21` showed an RP-LC retention time of 805 s.
Molecule `Cc1cc2nn(CC(=O)Nc3ccccc3)c(=O)n2c(N2CCCC2)n1` has an RP-LC retention time of 703 s.
`CC(C)Oc1ccccc1Cn1c(=O)oc2ccccc21` showed an RP-LC retention time of 1010 s.
Molecule `COc1ccc2c(c1)CCc1c-2n[nH]c1C(=O)O` has an RP-LC retention time of 674 s.
`O=c1nc(Oc2ccccc2)nc2ncccn12` showed an RP-LC retention time of 688 s.
`Cc1c(F)cccc1NC(=O)N1CCC(c2cc(=O)n3nccc3n2C)CC1` gave an RP-LC retention time of 690 s.
Work on `CCOCC(=O)NCc1ccc2c(c1)CCCN2C(=O)C1CCC1` yielded an RP-LC retention time of 750 s.
For `Cc1ccc(S(=O)(=O)C(F)(F)F)cc1N1C(=O)c2ccccc2C1=O`, the RP-LC retention time was 942 s.
`O=C(Nc1ccc(-c2cn3cccnc3n2)cc1)c1cccs1` gave an RP-LC retention time of 629 s.
For `Cc1ccc(NC(=O)Nc2ccc3nncn3c2)c(C)c1`, the RP-LC retention time was 747 s.
For `COc1ccc(NC(=O)C2=Cc3cc(Br)ccc3OC2)c(OC)c1`, the RP-LC retention time was 1120 s.
With `Cc1cc(NC(=O)C2CCN(S(=O)(=O)c3ccc(F)cc3)CC2)n(C)n1` the RP-LC retention time was 732 s.
In the case of `O=C1CN(S(=O)(=O)c2cccnc2)C2(CCCC2)CN1CC1CC1`, the RP-LC retention time is reported as 746 s.
Molecule `O=C(NCc1cccnc1)c1ccc(CN2CCN(Cc3ccc(F)cc3)C(=O)C2=O)cc1` has an RP-LC retention time of 597 s.
Work on `CCc1ccccc1NC(=O)Nc1ccc2nnc(C)n2c1` yielded an RP-LC retention time of 712 s.
Molecule `COc1ccc(C)cc1NC(=O)Cn1nc2c(Oc3cccc(F)c3)nccn2c1=O` has an RP-LC retention time of 936 s.
For `O=C(Nc1ncc(-c2ccccc2)s1)c1ccccc1Br`, the RP-LC retention time was 936 s.
For `CC1CCCC(NC(=O)Cn2cnc3c(nc4n3CCCCC4)c2=O)C1C` (stereo not given), the RP-LC retention time was 711 s.
